Measurements as given in ChEMBL document CHEMBL5696442, “Discovery of type II inhibitors of TGFβ-activated kinase 1 (TAK1) and mitogen-activated protein kinase kinase kinase kinase 2 (MAP4K2)” (J Med Chem, 2015).
Calls of active or inactive are those of the source. The calls are words filed in the database; no cut-off is given here.

Columns and labels:
[1] = target: T1, Phosphorylase b kinase gamma catalytic chain, liver/testis isoform (Homo sapiens) (UniProt P15735); assay: Inhibition of PHKG2 (unknown origin) at 10 uM by Ambit Kinomescan binding assay
T1 sequence (whole entry): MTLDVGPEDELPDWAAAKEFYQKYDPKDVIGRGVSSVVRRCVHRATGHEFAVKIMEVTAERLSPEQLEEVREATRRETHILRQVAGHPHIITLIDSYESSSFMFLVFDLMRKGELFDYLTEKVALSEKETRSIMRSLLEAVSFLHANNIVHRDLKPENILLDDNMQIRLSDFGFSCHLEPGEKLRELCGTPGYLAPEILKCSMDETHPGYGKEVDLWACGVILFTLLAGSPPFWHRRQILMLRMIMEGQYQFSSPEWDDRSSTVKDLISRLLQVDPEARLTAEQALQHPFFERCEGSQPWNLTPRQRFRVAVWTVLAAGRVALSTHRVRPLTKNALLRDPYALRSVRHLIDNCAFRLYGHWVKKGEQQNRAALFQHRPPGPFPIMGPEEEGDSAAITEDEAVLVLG

[2] = target: Serine/threonine-protein kinase PAK 5 (Homo sapiens) (UniProt Q9P286); assay: Inhibition of PAK7 (unknown origin) at 1 uM by Ambit Kinomescan binding assay relative to control
Sequence of Serine/threonine-protein kinase PAK 5 (Homo sapiens) (Q9P286 whole entry, looked up): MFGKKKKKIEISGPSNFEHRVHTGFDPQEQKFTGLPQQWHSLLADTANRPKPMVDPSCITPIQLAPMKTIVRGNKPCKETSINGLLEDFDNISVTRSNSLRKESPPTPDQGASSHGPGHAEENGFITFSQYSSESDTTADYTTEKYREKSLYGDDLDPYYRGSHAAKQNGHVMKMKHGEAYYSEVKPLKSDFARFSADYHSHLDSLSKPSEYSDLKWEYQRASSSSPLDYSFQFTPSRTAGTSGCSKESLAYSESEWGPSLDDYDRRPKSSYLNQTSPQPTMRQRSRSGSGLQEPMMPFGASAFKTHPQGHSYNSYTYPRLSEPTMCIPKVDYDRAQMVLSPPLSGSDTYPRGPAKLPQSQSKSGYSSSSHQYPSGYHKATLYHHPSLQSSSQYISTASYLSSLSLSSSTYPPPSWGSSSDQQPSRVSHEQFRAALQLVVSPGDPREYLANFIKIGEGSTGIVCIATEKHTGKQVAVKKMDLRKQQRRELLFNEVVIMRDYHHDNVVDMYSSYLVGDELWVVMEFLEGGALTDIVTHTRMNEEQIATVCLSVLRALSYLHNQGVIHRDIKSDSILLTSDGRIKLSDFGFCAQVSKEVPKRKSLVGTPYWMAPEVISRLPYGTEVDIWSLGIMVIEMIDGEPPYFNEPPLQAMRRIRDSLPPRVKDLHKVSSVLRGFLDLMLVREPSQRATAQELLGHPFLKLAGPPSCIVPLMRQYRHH

[3] = target: T2, NUAK family SNF1-like kinase 2 (Homo sapiens) (UniProt Q9H093); assay: Inhibition of SNARK (unknown origin) at 1 uM by Ambit Kinomescan binding assay relative to control
T2 sequence (whole entry): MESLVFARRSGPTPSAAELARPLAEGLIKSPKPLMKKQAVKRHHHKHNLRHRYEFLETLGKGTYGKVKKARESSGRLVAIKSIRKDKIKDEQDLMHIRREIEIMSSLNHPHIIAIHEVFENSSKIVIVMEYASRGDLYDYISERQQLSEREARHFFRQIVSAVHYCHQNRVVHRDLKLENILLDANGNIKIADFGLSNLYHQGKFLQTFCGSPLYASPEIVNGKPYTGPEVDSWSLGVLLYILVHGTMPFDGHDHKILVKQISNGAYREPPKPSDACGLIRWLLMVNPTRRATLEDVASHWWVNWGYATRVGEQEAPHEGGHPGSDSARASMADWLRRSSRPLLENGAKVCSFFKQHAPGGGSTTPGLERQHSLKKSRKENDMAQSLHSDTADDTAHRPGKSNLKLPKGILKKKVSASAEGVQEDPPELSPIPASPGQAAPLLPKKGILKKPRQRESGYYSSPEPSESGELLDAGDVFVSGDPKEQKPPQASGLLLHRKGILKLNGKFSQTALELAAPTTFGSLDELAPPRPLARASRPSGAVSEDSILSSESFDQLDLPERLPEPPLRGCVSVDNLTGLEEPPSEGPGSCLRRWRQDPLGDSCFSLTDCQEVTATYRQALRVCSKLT

[4] = target: T2, NUAK family SNF1-like kinase 2 (Homo sapiens); assay: Inhibition of NuaK2 Lys1 labeling site in human A-375 cells at 5 uM by KiNativ Profiling analysis relative to control; assay type: cell-based
[5] = target: Phosphatidylinositol 4,5-bisphosphate 3-kinase catalytic subunit alpha isoform (Homo sapiens) (UniProt P42336); assay: Inhibition of PIK3CA ATP labeling site in human A-375 cells at 0.05 uM by KiNativ Profiling analysis relative to control; assay type: cell-based
[6] = target: T3, Dual specificity mitogen-activated protein kinase kinase 3 (Homo sapiens) (UniProt P46734); assay: Inhibition of MAP2K3 Lys2 labeling site in human A-375 cells at 0.5 uM by KiNativ Profiling analysis relative to control; assay type: cell-based
T3 sequence (whole entry): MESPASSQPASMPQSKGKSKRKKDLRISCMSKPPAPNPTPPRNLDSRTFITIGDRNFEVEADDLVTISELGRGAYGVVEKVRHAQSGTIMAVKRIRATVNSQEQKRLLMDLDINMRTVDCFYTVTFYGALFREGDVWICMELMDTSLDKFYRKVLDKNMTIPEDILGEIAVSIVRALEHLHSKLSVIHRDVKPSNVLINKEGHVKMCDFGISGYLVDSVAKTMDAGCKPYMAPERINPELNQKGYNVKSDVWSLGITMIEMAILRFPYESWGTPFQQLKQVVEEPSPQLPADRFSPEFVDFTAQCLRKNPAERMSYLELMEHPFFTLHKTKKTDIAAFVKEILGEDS

[7] = target: TRAF2 and NCK-interacting protein kinase (Homo sapiens) (UniProt Q9UKE5); assay: Inhibition of ZC2/TNIK Lys2 labeling site in human Huh-7 cells at 1 uM by KiNativ Profiling analysis relative to control; assay type: cell-based
Sequence of TRAF2 and NCK-interacting protein kinase (Homo sapiens) (Q9UKE5 whole entry, looked up): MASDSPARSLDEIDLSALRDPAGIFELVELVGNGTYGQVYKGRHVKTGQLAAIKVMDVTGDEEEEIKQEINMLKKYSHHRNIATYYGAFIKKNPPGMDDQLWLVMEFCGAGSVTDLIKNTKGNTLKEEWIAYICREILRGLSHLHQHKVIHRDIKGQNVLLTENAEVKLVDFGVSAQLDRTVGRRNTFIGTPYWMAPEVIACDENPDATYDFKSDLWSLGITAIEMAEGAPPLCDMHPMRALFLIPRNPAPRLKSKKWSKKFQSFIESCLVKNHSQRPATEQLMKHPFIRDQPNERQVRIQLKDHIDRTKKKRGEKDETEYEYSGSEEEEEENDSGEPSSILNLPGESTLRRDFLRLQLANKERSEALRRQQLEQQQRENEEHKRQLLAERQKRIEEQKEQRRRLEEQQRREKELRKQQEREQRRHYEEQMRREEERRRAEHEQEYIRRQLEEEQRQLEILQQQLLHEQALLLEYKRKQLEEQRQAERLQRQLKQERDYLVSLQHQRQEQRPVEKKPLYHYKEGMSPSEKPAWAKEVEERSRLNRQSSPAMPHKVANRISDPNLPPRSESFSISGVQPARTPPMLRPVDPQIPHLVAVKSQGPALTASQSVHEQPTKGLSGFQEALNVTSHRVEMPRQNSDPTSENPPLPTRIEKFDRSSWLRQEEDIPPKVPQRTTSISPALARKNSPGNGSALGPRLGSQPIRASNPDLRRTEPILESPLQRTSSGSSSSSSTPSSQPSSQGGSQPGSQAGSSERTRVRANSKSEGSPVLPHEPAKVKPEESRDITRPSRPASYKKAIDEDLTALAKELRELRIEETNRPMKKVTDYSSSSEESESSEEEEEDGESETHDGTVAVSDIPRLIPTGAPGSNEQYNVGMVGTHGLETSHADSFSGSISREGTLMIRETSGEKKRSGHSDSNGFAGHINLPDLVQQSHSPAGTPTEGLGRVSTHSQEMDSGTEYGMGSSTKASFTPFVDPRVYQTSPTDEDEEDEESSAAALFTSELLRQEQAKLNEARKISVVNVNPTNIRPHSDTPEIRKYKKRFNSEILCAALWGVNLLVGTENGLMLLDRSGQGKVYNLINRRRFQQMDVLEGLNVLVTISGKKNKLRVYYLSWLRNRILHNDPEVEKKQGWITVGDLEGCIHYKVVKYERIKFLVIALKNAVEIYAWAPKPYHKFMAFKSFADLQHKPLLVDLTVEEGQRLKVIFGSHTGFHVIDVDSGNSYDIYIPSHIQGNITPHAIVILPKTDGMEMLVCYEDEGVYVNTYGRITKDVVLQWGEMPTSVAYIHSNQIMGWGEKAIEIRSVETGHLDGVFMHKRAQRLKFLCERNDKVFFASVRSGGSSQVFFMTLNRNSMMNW

[8] = target: MAP/microtubule affinity-regulating kinase 3 (Homo sapiens) (UniProt P27448); assay: Inhibition of MARK3 Lys1 labeling site in human Huh-7 cell lysate at 1 uM by KiNativ Profiling analysis relative to control; assay type: subcellular
Sequence of MAP/microtubule affinity-regulating kinase 3 (Homo sapiens) (P27448 whole entry, looked up): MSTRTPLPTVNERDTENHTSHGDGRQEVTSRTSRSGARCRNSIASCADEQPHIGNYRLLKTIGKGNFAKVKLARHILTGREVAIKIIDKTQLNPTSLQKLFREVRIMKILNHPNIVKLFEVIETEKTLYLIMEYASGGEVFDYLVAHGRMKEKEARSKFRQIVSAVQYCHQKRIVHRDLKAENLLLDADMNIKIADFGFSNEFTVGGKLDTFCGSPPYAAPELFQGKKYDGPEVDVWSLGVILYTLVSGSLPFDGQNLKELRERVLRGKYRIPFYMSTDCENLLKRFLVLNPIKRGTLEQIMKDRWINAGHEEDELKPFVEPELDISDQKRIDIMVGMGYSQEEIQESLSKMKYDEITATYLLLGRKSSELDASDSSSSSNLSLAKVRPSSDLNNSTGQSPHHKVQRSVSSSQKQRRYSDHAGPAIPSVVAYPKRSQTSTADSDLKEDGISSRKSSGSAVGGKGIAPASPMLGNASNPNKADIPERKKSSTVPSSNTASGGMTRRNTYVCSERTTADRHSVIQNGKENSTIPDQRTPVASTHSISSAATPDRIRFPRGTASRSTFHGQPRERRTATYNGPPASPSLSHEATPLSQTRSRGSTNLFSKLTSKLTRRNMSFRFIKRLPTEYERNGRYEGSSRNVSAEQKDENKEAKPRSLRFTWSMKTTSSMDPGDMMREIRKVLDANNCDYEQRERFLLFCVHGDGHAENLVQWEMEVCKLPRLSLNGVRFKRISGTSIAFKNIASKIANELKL

[9] = target: STE20-related kinase adapter protein alpha (Homo sapiens) (UniProt Q7RTN6); assay: Inhibition of STLK5 ACT labeling site in human Huh-7 cell lysate at 1 uM by KiNativ Profiling analysis relative to control; assay type: subcellular
Sequence of STE20-related kinase adapter protein alpha (Homo sapiens) (Q7RTN6 whole entry): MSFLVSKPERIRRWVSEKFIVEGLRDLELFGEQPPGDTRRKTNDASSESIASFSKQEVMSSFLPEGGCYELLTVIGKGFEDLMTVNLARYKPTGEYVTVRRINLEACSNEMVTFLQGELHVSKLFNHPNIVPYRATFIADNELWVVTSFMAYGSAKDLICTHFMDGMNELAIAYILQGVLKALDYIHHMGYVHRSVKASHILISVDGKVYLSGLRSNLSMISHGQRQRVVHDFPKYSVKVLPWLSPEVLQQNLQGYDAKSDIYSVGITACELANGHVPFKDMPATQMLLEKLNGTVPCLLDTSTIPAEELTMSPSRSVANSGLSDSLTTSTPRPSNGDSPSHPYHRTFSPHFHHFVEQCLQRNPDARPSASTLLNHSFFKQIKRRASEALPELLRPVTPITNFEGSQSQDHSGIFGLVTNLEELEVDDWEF

[10] = target: Protein kinase C beta type (Homo sapiens) (UniProt P05771); assay: Inhibition of PKCb Lys2 labeling site in human Huh-7 cells at 1 uM by KiNativ Profiling analysis relative to control; assay type: cell-based
Sequence of Protein kinase C beta type (Homo sapiens) (P05771 2-671 limits assumed): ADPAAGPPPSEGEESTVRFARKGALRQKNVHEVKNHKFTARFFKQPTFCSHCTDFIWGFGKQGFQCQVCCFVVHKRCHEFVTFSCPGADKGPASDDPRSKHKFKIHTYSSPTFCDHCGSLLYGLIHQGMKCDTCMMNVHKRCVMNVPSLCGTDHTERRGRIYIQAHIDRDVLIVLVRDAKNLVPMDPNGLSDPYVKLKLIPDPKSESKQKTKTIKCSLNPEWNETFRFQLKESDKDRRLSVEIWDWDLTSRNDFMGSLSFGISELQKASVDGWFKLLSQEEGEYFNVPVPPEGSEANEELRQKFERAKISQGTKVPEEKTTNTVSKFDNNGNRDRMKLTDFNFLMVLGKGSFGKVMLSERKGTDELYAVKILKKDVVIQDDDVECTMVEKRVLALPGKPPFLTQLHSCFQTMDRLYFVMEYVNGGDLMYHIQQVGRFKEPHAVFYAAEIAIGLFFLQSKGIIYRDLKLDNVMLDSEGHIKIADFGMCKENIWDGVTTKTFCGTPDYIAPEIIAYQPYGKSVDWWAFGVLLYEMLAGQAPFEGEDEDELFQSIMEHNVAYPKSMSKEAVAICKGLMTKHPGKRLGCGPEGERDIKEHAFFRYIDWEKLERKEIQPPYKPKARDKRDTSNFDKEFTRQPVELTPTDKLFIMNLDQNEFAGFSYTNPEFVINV

[11] = target: Serine/threonine-protein kinase Nek7 (Homo sapiens) (UniProt Q8TDX7); assay: Inhibition of NEK7 Lys2 labeling site harbouring DIKPANVFITATGVVK in human Huh-7 cells at 1 uM by KiNativ Profiling analysis relative to control; assay type: cell-based
Sequence of Serine/threonine-protein kinase Nek7 (Homo sapiens) (Q8TDX7 whole entry, looked up): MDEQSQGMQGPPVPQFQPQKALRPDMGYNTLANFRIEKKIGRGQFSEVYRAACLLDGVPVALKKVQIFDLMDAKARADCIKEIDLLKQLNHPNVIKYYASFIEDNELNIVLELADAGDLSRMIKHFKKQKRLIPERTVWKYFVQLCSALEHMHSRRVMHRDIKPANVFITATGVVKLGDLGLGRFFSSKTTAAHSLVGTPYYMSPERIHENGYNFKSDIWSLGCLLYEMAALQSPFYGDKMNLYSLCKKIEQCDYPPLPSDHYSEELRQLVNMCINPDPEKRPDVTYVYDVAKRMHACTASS

[12] = target: Cyclin-dependent kinase 13 (Homo sapiens) (UniProt Q14004); assay: Inhibition of CHED Lys2 labeling site harbouring DIKCSNILLNNR in human Huh-7 cell lysate at 1 uM by KiNativ Profiling analysis relative to control; assay type: subcellular
[13] = target: T4, Serine/threonine-protein kinase ULK3 (Homo sapiens) (UniProt Q6PHR2); assay: Inhibition of ULK3 Lys2 labeling site in human Huh-7 cell lysate at 1 uM by KiNativ Profiling analysis relative to control; assay type: subcellular
T4 sequence (whole entry): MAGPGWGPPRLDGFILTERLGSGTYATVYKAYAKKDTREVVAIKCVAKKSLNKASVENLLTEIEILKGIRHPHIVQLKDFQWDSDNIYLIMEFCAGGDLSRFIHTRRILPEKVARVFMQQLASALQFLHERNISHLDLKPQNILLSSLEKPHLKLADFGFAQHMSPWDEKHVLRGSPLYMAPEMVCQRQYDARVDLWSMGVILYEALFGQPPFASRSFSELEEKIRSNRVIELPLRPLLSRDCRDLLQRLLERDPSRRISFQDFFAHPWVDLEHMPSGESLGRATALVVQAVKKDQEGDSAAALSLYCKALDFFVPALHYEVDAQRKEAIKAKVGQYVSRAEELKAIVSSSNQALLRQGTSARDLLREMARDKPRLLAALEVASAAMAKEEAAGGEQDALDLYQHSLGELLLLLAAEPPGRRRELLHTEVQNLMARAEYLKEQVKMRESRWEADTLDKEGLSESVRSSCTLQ

CCN1CCN(Cc2ccc(NC(=O)c3ccc(C)c(Oc4ccnc5[nH]ccc45)c3)cc2C(F)(F)F)CC1
inhibition [1]: inactive

CCN1CCN(Cc2ccc(NC(=O)c3ccc(C)c(/C=C/c4cnc5[nH]ccc5c4OC)c3)cc2C(F)(F)F)CC1
inhibition [2]: 70%
inhibition [3]: 76%
inhibition [4]: -6.1%
inhibition [5]: 39%
inhibition [6]: 6.4%

CNc1cc(Oc2cc(C(=O)Nc3cc(N4CCN(C)CC4)cc(C(F)(F)F)c3)ccc2C)ncn1
inhibition [7]: 9.7%
inhibition [8]: 13.8%
inhibition [9]: 5.3%
inhibition [10]: 64.8%
inhibition [11]: -2.7%
inhibition [12]: 14%
inhibition [13]: 2.3%
